Row | SMILES | melting point [°C]
1 | COc1cc(O)c(C(=O)c2ccccc2)c(O)c1 | 130
2 | Cc1cc(C(=O)O)c(C)n1-c1ccc(Cl)cc1 | 230
3 | O=C1C(c2ccccc2)=[N+]([O-])c2ccccc21 | 186
4 | O=Cc1cccc(N2CCOCC2)c1 | 68 to 70
5 | C(=C(c1ccccc1)c1ccccc1)=C(c1ccccc1)c1ccccc1 | 140
6 | CC(=O)OCC(COC(C)=O)(COC(C)=O)COC(C)=O | 83.5
7 | C#CC1(O)CCC2C3CCC4=Cc5oncc5CC4(C)C3CCC21C (centres undefined) | 235
8 | Cc1ccc(NC(=O)CC2C(=O)C3(C)CCC2C3(C)C)cc1 (centres undefined) | 158
9 | COC(=O)C=Cc1cccc(C=CC(=O)OC)c1 | 132
10 | N#CC1C(=N)Oc2c(c(=O)oc3ccccc23)C1c1ccc(Br)cc1 (centres undefined) | 254
11 | O=C(OCC(O)CO)c1ccccc1Nc1ccnc2cc(Cl)ccc12 (centres undefined) | 170
12 | Cc1nnc(-c2ccccc2)c2noc(C)c12 | 180
13 | Cc1nc(-c2ccc(-c3ccccc3)cc2)cs1 | 113 to 118
14 | O=C(C(=O)c1ccc2ccccc2c1)c1ccccc1 | 87
15 | Cc1cc2cc(Cl)ccc2[nH]1 | 112 to 118
16 | Oc1cc(Cl)c(Cl)c(Cl)c1Cl | 116
17 | CCOC(C)(C)C | -94
18 | COc1ccc(C(C)=CC(=O)O)c(OC)c1 | 149
19 | Nc1cc(Br)ccn1 | 146
20 | COc1ccc(C=CC(=O)OCCOc2ccc(C=CC(=O)c3ccccc3)cc2)cc1 | 142
21 | O=C(O)c1ccccc1-n1ccnc1 | 198 to 200
22 | CC(O)C(C)C(C)(C)C (centres undefined) | 27
23 | Cn1ccc(-c2ccc(N)cc2)n1 | 125 to 132
24 | O=C(O)C1=CCCc2ccccc21 | 125
25 | CC(CCC(N)=O)n1nc2ccccc2n1 (centres undefined) | 102

Row | SMILES | melting point [°C]
26 | O=Cc1c(F)cccc1Cl | 37
27 | COC(=O)C1C2CC3c4[nH]c5ccccc5c4CCN3CC2CC(OC(=O)c2cc(OC)c(OC)c(OC)c2)C1OC (centres undefined) | 230
28 | CCc1ccc(-c2ccccc2)cc1 | 35
29 | Cc1cc(C(=O)NN)nn1C(C)(C)C | 85 to 88
30 | CS(=O)(=O)NC(=O)c1cc(Oc2ccc(C(F)(F)F)cc2Cl)ccc1[N+](=O)[O-] | 220
31 | CC1COc2c(C3(N)CC3)c(F)cc3c(=O)c(C(=O)O)cn1c23 (centres undefined) | 269
32 | O=C(CCl)Nc1ccc(Cl)cc1Cl | 105 to 108
33 | Cc1ccc(N)c(Cl)n1 | 88 to 91
34 | CCC1CN2CCC1CC2C(O)c1ccnc2ccc(OC)cc12 (centres undefined) | 172
35 | CC1=CC(=O)CCC1 | -21
36 | CC(C)(C)c1cc([N+](=O)[O-])c2cc(C(C)(C)C)cc([N+](=O)[O-])c2c1 | 198 to 200
37 | ClC1=C(Cl)C2(Cl)C3C(c4ccccc4C4C3C3(Cl)C(Cl)=C(Cl)C4(Cl)C3(Cl)Cl)C1(Cl)C2(Cl)Cl (centres undefined) | 217 to 220
38 | N#CC(=Cc1ccccc1)C(=O)O | 175
39 | COc1ccc(NC(=S)c2cc(C(C)(C)C)c(O)c(C(C)(C)C)c2)cc1 | 128 to 129
40 | Nc1ccc2c3c(cccc13)-c1ccccc1-2 | 116
41 | O=[N+]([O-])c1c2c(c([N+](=O)[O-])c3c1CCCN3)NCCC2 | 187
42 | CC(=O)N(c1ccccc1)c1ccccc1 | 103
43 | Cc1cc(N=O)ccc1N=O | 137
44 | Nc1ccccc1Cn1cncn1 | 56 to 57
45 | BrCc1cccc2nonc12 | 77 to 79
46 | CC12CCC(O)CC1CCC1C2CCC2(C)C1CCC2(O)C#Cc1ccccc1 (centres undefined) | 120 to 123
47 | Cc1cc2ccccc2nc1C | 68.5
48 | CC1(C)SC2C(NC(=O)C3(N)CCCCC3)C(=O)N2C1C(=O)O (centres undefined) | 182
49 | C1=NN(c2ccccc2)CC1 | 52
50 | CSc1nc(=O)n(Cc2ccccc2)c2c1CCC2 | 94 to 96

Row | SMILES | melting point [°C]
51 | CCOC(=O)c1c(C)n(OC)c2ccc3nonc3c12 | 147 to 149
52 | CCOC(=O)c1cccc(Oc2cncc(C)n2)c1 | 50.5 to 51.5
53 | N#Cc1ccc(N)c2ccccc12 | 176
54 | FC(Cl)C(F)Cl (centres undefined) | -101
55 | COc1ccccc1-c1ccc(/C=C2/C=C(CC(C)C)OC2=O)o1 | 89
56 | CCS(=O)(=O)CCn1c([N+](=O)[O-])cnc1C | 128
57 | C#C[C@@]1(OC)CC[C@H]2[C@@H]3CCc4cc(OC)ccc4[C@H]3CC[C@@]21C | 114
58 | CC(C)=CC(=O)C=C(C)C | 28
59 | COC(=O)c1cc(OCc2cc(COc3cc(C(=O)OC)cc(C(=O)OC)c3)cc(COc3cc(C(=O)OC)cc(C(=O)OC)c3)c2)cc(C(=O)OC)c1 | 188
60 | CC(=O)NCCc1c[nH]c2ccc(O)cc12 | 120 to 122
61 | CN1C(=O)c2ccccc2C1O (centres undefined) | 133
62 | N#Cc1c(-c2ccc(Br)cc2)cc2c(C#N)c(=N)n(C(=O)c3ccc(Cl)cc3)n2c1N | 190
63 | C/C=C/C=C/C(=O)OC | 15
64 | CCCc1cccc(O)c1 | 26
65 | O=[N+]([O-])c1ccc(Cc2ccncc2)cc1 | 71
66 | C/C=C/c1nc(O)n(-c2ccccc2)n1 | 188
67 | Cc1occc1C(=O)CC#N | 95 to 97
68 | CC(C)(C)OC(=O)N1CCC(O)CC1 | 63
69 | CC(C)N(C=O)C(C)C | 10 to 11
70 | NC(=O)C#CC(N)=O | 238
71 | Nc1cccc(Oc2ccc(S(=O)(=O)c3ccc(Oc4cccc(N)c4)cc3)cc2)c1 | 132 to 135
72 | COc1cc(N)c2ncccc2c1 | 52
73 | COc1ccc(CCNCC(O)COc2cccc(C)c2)cc1OC (centres undefined) | 138
74 | CC(C)OC(N)=O | 93
75 | CC12CCC=C1C1CCC3=CC(=O)CCC3(C)C1CC2 (centres undefined) | 117

Row | SMILES | melting point [°C]
76 | COc1ccc(-c2ccc(S(=O)(=O)NC(C)C(=O)O)cc2)cc1 (centres undefined) | 179
77 | CC1=CCC(C(C)C)=CC1 | -10
78 | COC(=O)c1sc(SC)c(S(=O)(=O)C(C)C)c1I | 193 to 195
79 | CC(C)C[N+](=O)[O-] | -76.8
80 | Brc1cc(Br)c(Oc2cc(Br)c(Br)cc2Br)c(Br)c1 | 131 to 132
81 | Nc1cccc(S(=O)(=O)N2CCCCC2)c1 | 117 to 118
82 | CC(CCC(=O)O)C1CCC2C3CCC4CC(O)CCC4(C)C3CC(O)C12C (centres undefined) | 177
83 | CCCCCCCCCCCCc1ccccc1S(=O)(=O)O | 10
84 | CSc1ccc(CO)cc1 | 42
85 | CNC(=O)Oc1cc(C(C)(C)C)cc(C(C)(C)C)c1 | 103
86 | O=C(Nc1ccc([N+](=O)[O-])cc1[N+](=O)[O-])C(F)(F)C(F)(F)C(F)(F)C(F)(F)C(F)(F)C(F)(F)C(F)(F)C(F)(F)F | 125
87 | C=CC1(C(C)CCC)C(=O)NC(=O)NC1=O (centres undefined) | 90
88 | COc1c(Br)cc(Br)cc1Br | 88
89 | CC1=CC2OC1C(Cl)(Cl)C(=O)C2(Cl)Cl (centres undefined) | 90 to 90.5
90 | Cc1ccc(C(c2ccc(C)o2)c2cc([N+](=O)[O-])cc(Br)c2O)o1 | 153
91 | [O-][N+]1=C(c2ccccn2)/C(=N\O)c2ccccc21 | 215 to 217
92 | O=[N+]([O-])c1ccc(/C=C/C=C/C=C/c2ccc([N+](=O)[O-])cc2)cc1 | 240
93 | CC(C=CC=C(C)C=CC1=C(C)C=CCC1(C)C)=CC=O | 77.5
94 | O=C(O)c1cc(Cl)ccc1F | 149
95 | CC[C@H](C)[C@H](NC(=O)OCc1ccccc1)C(=O)O | 52 to 54
96 | C=CCC1(C(C)CC)C(=O)NC(=O)NC1=O (centres undefined) | 109
97 | CCCCCCCCCCCCCCCCC(=O)OCC | 28
98 | O=C(O)c1ccc2nonc2c1 | 157 to 158
99 | CCOC(=O)c1c(C)cc(O)cc1O | 132
100 | C[C@H](O)C(N)=O | 51 to 55

Row | SMILES | melting point [°C]
101 | O=C(CBr)c1ccc2c(c1)OCO2 | 91 to 93
102 | COc1c(C)cc(N)cc1C | 64
103 | Nc1cc(C(F)(F)F)ccc1Cl | 10
104 | NC(Cc1ccc(O)c(O)c1)C(=O)O (centres undefined) | 295
105 | COc1ccc2c(c1)CC1(CCC(=O)C(C(=O)O)C1)C2=O (centres undefined) | 120
106 | O=S(=O)(CCSCCO)c1ccc(Cl)cc1 | 59 to 62
107 | N#C/C(=N/Nc1ccccc1Cl)c1nc(-c2ccccc2)cs1 | 160
108 | Cn1cc(Br)c(CCl)n1 | 76.5 to 78.5
109 | CCc1c(CC)c(CC)c(CC)c(CC)c1CC | 129
110 | Oc1ccc(F)c(F)c1F | 32
111 | NS(=O)(=O)c1ccc(N2C(=O)CC(c3ccccc3)C2=O)c(Cl)c1 (centres undefined) | 206
112 | O=C(OC(C(=O)O)C(OC(=O)c1ccccc1)C(=O)O)c1ccccc1 (centres undefined) | 155
113 | O=C(O)c1cc(Br)cs1 | 121
114 | CC(C)(C)OC(=O)N1OC1c1ccc(C#N)cc1 (centres undefined) | 57 to 63
115 | CC12CCC3C(CCC4=CC(=O)CCC43C)C1CCC2=O (centres undefined) | 170 to 171
116 | COc1ccc(C(=O)C2CC2)cc1 | 42
117 | N#Cc1cc(F)c(F)c(F)c1 | 46
118 | Cc1ccc(C(c2ccc(C)cc2)(C(F)(F)F)C(F)(F)F)cc1 | 82 to 83
119 | CCC1CC(NC(=O)CBr)C(C)(C)N1O (centres undefined) | 148 to 150
120 | COc1ccccc1-c1ccc(/C=C2\N=C(c3ccccc3)OC2=O)o1 | 170
121 | CN(Cc1cc(Br)cc(Br)c1N)C1CCCCC1 | 238
122 | Cc1ncc([N+](=O)[O-])n1CC(C)O (centres undefined) | 76
123 | CC(CCC(C(=O)O)C(C)C)C(=O)O (centres undefined) | 104
124 | Cc1cnc(Cl)c(Br)c1 | 66 to 68
